In general, IC50 refers to the concentration at which inhibition is half-maximal. Read a high IC50 as weaker potency in that assay.

Bounds are passed on as bounds.

This assay concerns the target His-Tagged hOGA (human O-GlcNAcase) (Homo sapiens (Human), UniProt O60502). The assay is described as follows: Human O-GlcNAcase enzyme inhibition assay (Example B01). Type of assay: biochemical. Conditions: OGA enzyme inhibition assay; FL-GlcNAc substrate, 60 min, room temperature, pH 6.5. On the procedure: Example B01: Human O-GlcNAcase Enzyme Inhibition Assay
5 μl of the appropriate concentration of a solution of inhibitor in McIlvaine's Buffer (pH 6.5) in 2% DMSO (for a dose response curve calculation) is added into each well of a 384-well plate (Greiner, 781900). Then, 20 nM of His-Tagged hOGA and 10 μM of FL-GlcNAc (Fluorescein mono-beta-D-(2-deoxy-2-N-acetyl) glucopyranoside; Marker Gene Technologies Inc, M1485) were added to the 384-well plate for a final volume of 20 μl. After incubation for 60 min at room temperature, the reaction was terminated by the addition of 10 μL of stop buffer (200 mM glycine, pH 10.75). The level of fluorescence (λexc 485 nm; (λemm 520 nm) was read on a PHERAstar machine. The amount of fluorescence measured was plotted against the concentration of inhibitor to produce a sigmoidal dose response curve to calculate an IC50. All individual data was corrected by subtraction of the background (Thiamet 3 uM=100% inhibition) whilst 0.5% DMSO was considered as the control value (no inhibition).

His-Tagged hOGA (human O-GlcNAcase), sequence (O60502 whole entry): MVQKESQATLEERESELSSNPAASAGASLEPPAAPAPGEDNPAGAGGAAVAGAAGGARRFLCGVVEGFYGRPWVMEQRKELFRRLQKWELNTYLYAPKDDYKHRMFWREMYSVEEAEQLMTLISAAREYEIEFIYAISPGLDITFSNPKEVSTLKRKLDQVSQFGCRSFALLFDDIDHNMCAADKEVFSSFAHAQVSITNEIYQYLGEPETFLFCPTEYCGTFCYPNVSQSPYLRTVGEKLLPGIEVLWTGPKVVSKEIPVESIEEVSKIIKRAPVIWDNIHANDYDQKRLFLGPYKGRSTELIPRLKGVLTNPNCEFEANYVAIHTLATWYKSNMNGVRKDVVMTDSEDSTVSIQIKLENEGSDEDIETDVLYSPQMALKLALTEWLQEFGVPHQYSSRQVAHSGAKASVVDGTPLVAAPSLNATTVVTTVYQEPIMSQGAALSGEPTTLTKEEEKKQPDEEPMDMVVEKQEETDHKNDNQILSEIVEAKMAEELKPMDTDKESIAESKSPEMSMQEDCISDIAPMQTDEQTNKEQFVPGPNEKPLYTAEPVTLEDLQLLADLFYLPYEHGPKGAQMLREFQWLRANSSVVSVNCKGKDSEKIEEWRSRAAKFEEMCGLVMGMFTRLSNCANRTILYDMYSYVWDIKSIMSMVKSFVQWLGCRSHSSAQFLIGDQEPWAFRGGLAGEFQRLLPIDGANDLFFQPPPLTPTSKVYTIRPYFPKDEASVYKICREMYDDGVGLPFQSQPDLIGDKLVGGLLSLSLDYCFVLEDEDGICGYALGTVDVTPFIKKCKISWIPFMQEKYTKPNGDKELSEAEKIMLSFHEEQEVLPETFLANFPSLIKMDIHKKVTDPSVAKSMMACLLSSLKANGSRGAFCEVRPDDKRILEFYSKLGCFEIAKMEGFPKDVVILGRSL

The compound `CC(c1ccc2scnc2c1)N1CCC2(CC1)NC(=O)N(C)C2=O` (racemic) [Example 1, 8-(1-(benzo[d]thiazol-5-yl)ethyl)-3-methyl-1,3,8-triazaspiro[4.5]decane-2,4-dione] returned a half-inhibitory concentration (IC50) of 200 to 1000 nM. On to `CC(c1ccc2c(c1)OCC2)N1CCC2(CC1)NC(=O)N(C)C2=O` (racemic) [Example 2, 8-(1-(2,3-dihydrobenzofuran-6-yl)ethyl)-3-methyl-1,3,8-triazaspiro[4.5]decane-2,4-dione], for which the IC50 lay within 200 to 1000 nM. As to `CC(c1ccc2scnc2c1)N1CCC2(CC1)NC(=O)NC2=O` (racemic) [Example 3, 8-(1-(benzo[d]thiazol-5-yl)ethyl)-1,3,8-triazaspiro[4.5]decane-2,4-dione], the concentration for half-maximal inhibition (IC50) was in the range of 1000 to 10000 nM. For `CC(c1ccc2c(c1)OCC2)N1CCC2(CC1)NC(=O)N(Cc1cncnc1)C2=O` (racemic) [Example 4, 8-(1-(2,3-dihydrobenzofuran-6-yl)ethyl)-3-(pyrimidin-5-ylmethyl)-1,3,8-triazaspiro[4.5]decane-2,4-dione] the value was 50 to 200 nM; for `CC(c1ccc2scnc2c1)N1CCC2(CC1)NC(=O)N(Cc1cncnc1)C2=O` (racemic) [Example 5], 50 to 200 nM; for `COCCN1C(=O)NC2(CCN(C(C)c3ccc4c(c3)OCC4)CC2)C1=O` (racemic) [Example 6, 8-(1-(2,3-dihydrobenzofuran-6-yl)ethyl)-3-(2-methoxyethyl)-1,3,8-triazaspiro[4.5]decane-2,4-dione], 50 to 200 nM. Then `COCCN1C(=O)NC2(CCN(C(C)c3ccc4scnc4c3)CC2)C1=O` (racemic) [Example 7, 8-(1-(benzo[d]thiazol-5-yl)ethyl)-3-(2-methoxyethyl)-1,3,8-triazaspiro[4.5]decane-2,4-dione], with 200 to 1000 nM. Then `CC(c1ccc2scnc2c1)N1CCC2(CC1)NC(=O)N(Cc1ccc(C(F)(F)F)nc1)C2=O` (racemic) [Example 8], with 50 to 200 nM; and `CC(c1ccc2c(c1)OCC2)N1CCC2(CC1)NC(=O)N(Cc1ccc(C(F)(F)F)nc1)C2=O` (racemic) [Example 9], with 50 to 200 nM; and `CC(c1ccc2c(c1)OCC2)N1CCC2(CC1)NC(=O)N(Cc1ccc(S(C)(=O)=O)cc1)C2=O` (racemic) [Example 11], with below 50 nM.

For `CC(c1ccc2c(c1)OCC2)N1CCC2(CC1)NC(=O)N(c1ccc(C#N)cc1)C2=O` (racemic) [Example 12, 4-(8-(1-(2,3-dihydrobenzofuran-6-yl)ethyl)-2,4-dioxo-1,3,8-triazaspiro[4.5]decan-3-yl)benzonitrile], the IC50 was below 50 nM.

With `CC(c1ccc2scnc2c1)N1CCC2(CC1)NC(=O)N(c1ccc(C#N)cc1)C2=O` (racemic) [Example 13, 4-(8-(1-(benzo[d]thiazol-5-yl)ethyl)-2,4-dioxo-1,3,8-triazaspiro[4.5]decan-3-yl)benzonitrile], the IC50 was 50 to 200 nM.

Take `Cc1cc(N2CCC3(CCN(C(C)c4ccc5scnc5c4)CC3)C2)n2nccc2n1` (racemic) [Example 14, 5-(1-(2-(5-methylpyrazolo[1,5-a]pyrimidin-7-yl)-2,8-diazaspiro[4.5]decan-8-yl)ethyl)benzo[d]thiazole]: the 50% inhibitory concentration (IC50) was 200 to 1000 nM. As to `CC(c1ccc2scnc2c1)N1CCC2(CC1)CC(=O)N(c1ccc(C#N)cc1)C2` (racemic) [Example 15, 4-(8-(1-(benzo[d]thiazol-5-yl)ethyl)-3-oxo-2,8-diazaspiro[4.5]decan-2-yl)benzonitrile], the IC50 is 1000 to 10000 nM. Then `Cc1cc(N2CC3(CCN(C(C)c4ccc5c(c4)OCC5)CC3)CC2=O)n2nccc2n1` (racemic) [Example 16, 8-(1-(2,3-dihydrobenzofuran-6-yl)ethyl)-2-(5-methylpyrazolo[1,5-a]pyrimidin-7-yl)-2,8-diazaspiro[4.5]decan-3-one], with 1000 to 10000 nM. Then `CC(c1ccc2scnc2c1)N1CCC2(CC1)CC(=O)N(Cc1ccc(S(C)(=O)=O)cc1)C2` (racemic) [Example 17, 8-(1-(benzo[d]thiazol-5-yl)ethyl)-2-(4-(methylsulfonyl)benzyl)-2,8-diazaspiro[4.5]decan-3-one], with 1000 to 10000 nM; and `CC(c1ccc2c(c1)OCC2)N1CCC2(CC1)CC(=O)N(Cc1ccc(S(C)(=O)=O)cc1)C2` (racemic) [Example 18, 8-(1-(2,3-dihydrobenzofuran-6-yl)ethyl)-2-(4-(methylsulfonyl)benzyl)-2,8-diazaspiro[4.5]decan-3-one], with 200 to 1000 nM. Regarding `CC(c1ccc2c(c1)OCC2)N1CCC2(CC1)CC(=O)N(c1ccc(C#N)cc1)C2` (racemic) [Example 19, 4-(8-(1-(2,3-dihydrobenzofuran-6-yl)ethyl)-3-oxo-2,8-diazaspiro[4.5]decan-2-yl)benzonitrile], the half-maximal inhibitory concentration (IC50) lay in the range of 1000 to 10000 nM. Then `CC(c1ccc2scnc2c1)N1CCC2(CC1)C(=O)Nc1ccccc12` (racemic) [Example 20, 1′-(1-(benzo[d]thiazol-5-yl)ethyl)spiro[indoline-3,4′-piperidin]-2-one], with 200 to 1000 nM. `CC(c1ccc2c(c1)OCC2)N1CCC2(CC1)C(=O)Nc1ccccc12` (racemic) [Example 21, 1′-(1-(2,3-dihydrobenzofuran-6-yl)ethyl)spiro[indoline-3,4′-piperidin]-2-one]: the 50% inhibitory concentration (IC50) was 200 to 1000 nM. Then `CC(c1ccc2scnc2c1)N1CCC2(CC1)NC(=O)N(Cc1ccc(C#N)cc1)C2=O` (racemic) [Example 22, 4-((8-(1-(benzo[d]thiazol-5-yl)ethyl)-2,4-dioxo-1,3,8-triazaspiro[4.5]decan-3-yl)methyl)benzonitrile], with 50 to 200 nM; and `CC(c1ccc2scnc2c1)N1CCC2(CC1)C(=O)N(Cc1ccc(C#N)cc1)C(=O)N2Cc1ccc(C#N)cc1` (racemic) [Example 23, 4,4′-((8-(1-(benzo[d]thiazol-5-yl)ethyl)-2,4-dioxo-1,3,8-triazaspiro[4.5]decane-1,3-diyl)bis(methylene))dibenzonitrile], with 200 to 1000 nM. Turning to `CC(c1ccc2scnc2c1)N1CCC2(CC1)C(=O)N(Cc1ccc(S(C)(=O)=O)cc1)C(=O)N2Cc1ccc(S(C)(=O)=O)cc1` (racemic) [Example 24, 8-(1-(benzo[d]thiazol-5-yl)ethyl)-1,3-bis(4-(methylsulfonyl)benzyl)-1,3,8-triazaspiro[4.5]decane-2,4-dione], the IC50 was 200 to 1000 nM. For `CC(c1ccc2scnc2c1)N1CCC2(CC1)C(=O)N(c1ccc(C#N)cc1)c1ccccc12` (racemic) [Example 25, 4-(1′-(1-(benzo[d]thiazol-5-yl)ethyl)-2-oxospiro[indoline-3,4′-piperidin]-1-yl)benzonitrile] the value was 50 to 200 nM; for `CC(c1ccc2scnc2c1)N1CCC2(CCN(Cc3ccc(C#N)cc3)C2=O)CC1` (racemic) [Example 26, 4-((8-(1-(benzo[d]thiazol-5-yl)ethyl)-1-oxo-2,8-diazaspiro[4.5]decan-2-yl)methyl)benzonitrile], 200 to 1000 nM; for `CC(c1ccc2scnc2c1)N1CCC2(CCN(c3ccc(C#N)cc3)C2=O)CC1` (racemic) [Example 27, 4-(8-(1-(benzo[d]thiazol-5-yl)ethyl)-1-oxo-2,8-diazaspiro[4.5]decan-2-yl)benzonitrile], 200 to 1000 nM. The compound `CC(c1ccc2scnc2c1)N1CCC2(CCN(c3ccc(C#N)cc3)C2)CC1` (racemic) [Example 28, 4-(8-(1-(benzo[d]thiazol-5-yl)ethyl)-2,8-diazaspiro[4.5]decan-2-yl) benzonitrile] yielded an IC50 of 200 to 1000 nM. As to `CC(c1ccc2scnc2c1)N1CCC2(CC1)C(=O)N(Cc1ccc(C#N)cc1)c1ccccc12` (racemic) [Example 29, 4-((1′-(1-(benzo[d]thiazol-5-yl)ethyl)-2-oxospiro[indoline-3,4′-piperidin]-1-yl)methyl)benzonitrile], the IC50 lay in the range of 200 to 1000 nM. On to `CC(c1ccc2c(c1)OCC2)N1CCC2(CC1)C(=O)N(Cc1ccc(C#N)cc1)C(=O)N2Cc1ccc(C#N)cc1` (racemic) [Example 30, 4,4′-((8-(1-(2,3-dihydrobenzofuran-6-yl)ethyl)-2,4-dioxo-1,3,8-triazaspiro[4.5]decane-1,3-diyl)bis(methylene))dibenzonitrile], for which the IC50 was in the range of 200 to 1000 nM.

As for `CC(c1ccc2scnc2c1)N1CCC2(CC1)CCN(S(C)(=O)=O)C2` (racemic) [Example 31, 5-(1-(2-(methylsulfonyl)-2,8-diazaspiro[4.5]decan-8-yl)ethyl) benzo[d]thiazole], the IC50 was in the range of 1000 to 10000 nM. `CC(c1ccc2scnc2c1)N1CCC2(CC1)CN(Cc1ccc(C#N)cc1)C(=O)N2` (racemic) [Example 32, 4-((8-(1-(benzo[d]thiazol-5-yl)ethyl)-2-oxo-1,3,8-triazaspiro[4.5]decan-3-yl)methyl)benzonitrile] had an IC50 of 50 to 200 nM. For `CC(c1ccc2scnc2c1)N1CCC2(CC1)CN(c1ccc(C#N)cc1)C(=O)N2` (racemic) [Example 34, 4-(8-(1-(benzo[d]thiazol-5-yl)ethyl)-2-oxo-1,3,8-triazaspiro[4.5]decan-3-yl)benzonitrile] the value was 50 to 200 nM.

`CC(c1ccc2scnc2c1)N1CCC2(CC1)CN(c1cccc(S(C)(=O)=O)c1)C(=O)N2` (racemic) [Example 35, 8-(1-(benzo[d]thiazol-5-yl)ethyl)-3-(3-(methylsulfonyl)phenyl)-1,3,8-triazaspiro[4.5]decan-2-one] showed a half-inhibitory concentration (IC50) of 50 to 200 nM.
